Key:
MDA-MB-231 spheroids = assay: 3D spheroid growth model, MDA-MB-231; format: cell-based, human; details: 10 nM
Description: (§1) MDA-MB-231 and MCF-7 breast cancer cells were cultured in standard tissue culture plates using RPMI or DMEM media supplemented with 10% fetal bovine serum (FBS) and 1% penicillin–streptomycin until they reached approximately 80% confluency. Cells were washed with PBS and dissociated using 0.25% Trypsin-EDTA, followed by neutralization with complete medium. Viability was assessed via trypan blue exclusion, ensuring >90% viable cells. For spheroid formation, cells were seeded into ultralow attachment 96-well plates at a density of 5000 cells/well in 200 μL of complete medium. Plates were centrifuged at 1000 rpm for 5 min to promote aggregation and incubated at 37 °C in a humidified 5% CO2 atmosphere. Spheroid formation was monitored daily using an inverted microscope. Media exchanges or treatment additions were performed by carefully aspirating 100 μL of medium from each well and replacing it with an equal volume of fresh or treatment-containing medium. Differences in spheroid characteristics between the two cell lines were noted: MCF-7 cells, being epithelial and E-cadherin positive, formed compact, uniform spheroids at lower seeding densities (1000–5000 cells/well) over 3–5 days, whereas MDA-MB-231 cells, which lack E-cadherin, required higher densities (5000–10,000 cells/well) and formed looser aggregates typically within 2–4 days. All experiments were performed in duplicates. Surface area was calculated using Image View’s multipoint connection function.

Bcl2 [1] = assay: Bcl2 protein expression by western blot in MCF-7 cells; format: cell-based, human; details: MCF-7, 10 nM, 24 h
Description: (§2) The hook effect was again observed in Bcl2 protein expression, underscoring the functional link between HuR and Bcl2.
(§3) MDA-MB-231 and MCF-7 cells were seeded in 6-well plates at approximately 60% confluency in complete growth medium and treated with synthesized compounds at the indicated concentrations or with vehicle for 24 h. Total protein was extracted using RIPA cell lysis buffer (BioPrep) containing a protease inhibitor, and protein concentration was measured using the BCA protein assay (Sigma-Aldrich) according to the manufacturer’s protocol. Approximately 30 μg of total protein were resolved on a 12% SDS-acrylamide gel and transferred to a PVDF membrane (Immobilon FL transfer membrane; Merck). The membrane was washed with 1× Tris-buffered saline (TBS) containing 0.1% (v/v) Tween-20 (TBST; Tris-base, pH 7.6, NaCl, and Tween-20) and blocked in 1× TBST containing 5% (w/v) BSA for 2 h at room temperature. […] The fold change in the expression of the target proteins (HuR or Bcl2) was calculated by normalizing the band intensity to the Vinculin band intensity using ImageJ.

MCF-10A = assay: Crystal violet viability assay in MCF-10A cells; format: cell-based; details: 10 nM or 10 μM, 48 h
Description: (§4) To elucidate the decrease in cell viability observed, we evaluated the potential increase in apoptosis using the […] Caspase-Glo 3/7 assay system. Upon cell lysis, active caspases cleave a luminogenic substrate, releasing aminoluciferin, which is subsequently converted to light by luciferase. The intensity of the signal directly correlates with the levels of apoptosis. […] This destabilization reduces the levels of proteins essential for cancer cell survival, resulting in cumulative cellular stress, diminished proliferation, and enhanced cytotoxicity. […] This enhanced effect is likely due to the catalytic nature of the molecular glue degraders, offering promising potential for cancer treatment.
RNF-126 recruiter for 48 h, measured using crystal violet. (B) Viability assay of MCF-10A cells
126 recruiter for 48 h, measured using crystal violet.
(1 picture or pasted object on this page, not shown here)

MCF-7 cells [2] = assay: Crystal violet viability assay in MCF-7 cells; format: cell-based, human; details: MCF-7, 10 nM and 10 μM, 48 h
Description: as §4
[…] After treatment, the medium was removed, and cells were gently washed with PBS to remove any residual media. Cells were then fixed by adding 100 μL of 100% cold methanol and incubating for 10 min. The methanol was aspirated, and the cells were allowed to air-dry fully. The cells were stained with 50 μL of 0.1% crystal violet for 10 min, after which excess crystal violet was aspirated and the cells were washed with PBS. To quantify cell viability, 100 μL of 33% acetic acid was added to each well to solubilize the bound dye. […] was then measured at 590 nm using Synergy H1 Hybrid Multi-Mode Microplate Reader (Biotek, Agilent). […]

MCF-7 cells [3] = assay: Caspase-Glo 3/7 apoptosis assay; format: cell-based, human; details: MCF-7, 10 nM
Description: as §4
MCF-7 cells were seeded in 96-well plates to 80% confluency and treated with synthesized compounds at four concentrations (1 nM–1 μM) for 24 and 48 h. Cell apoptosis was analyzed using the Caspase-Glo 3/7 Assay System (Promega, G8090). Each sample was incubated with Caspase-Glo 3/7 solution for 1 h, followed by luminescence measurement. Luminescence was measured […] using the Synergy H1 Hybrid Multi-Mode Microplate Reader (Biotek, Agilent). Cell apoptosis was calculated as the percent increase in luminescence of treated cells compared to untreated controls. All experiments were performed in triplicate.

Bcl2 [4] = assay: Bcl2 protein expression by western blot in MDA-MB-231 cells; format: cell-based, human; details: MDA-MB-231, 10 nM, 24 h
Description: as §2, §3

MCF-7 spheroids = assay: 3D spheroid growth model, MCF-7; format: cell-based, human; details: 10 nM
Description: as §1

Bcl2 and FOXQ1 mRNA = assay: mRNA RT-qPCR of Bcl2 and FOXQ1 in MCF-7 cells; format: cell-based, human; details: MCF-7, concentrations ranging from 1 nM to 100 nM
Description: MCF-7 cells were seeded into 12-well plates (∼150,000 cells per well) at 60–70% confluency incubated for 12 h. The cells were then treated with different synthesized compounds at the indicated concentrations or with vehicle control for 24 and 48 h. After treatment, total RNA was extracted using the QuickRNA Miniprep Kit (Zymo Research) according to the manufacturer’s protocol, including DNase I treatment. Reverse transcription was performed on 1 μg of total RNA using the qScript cDNA Synthesis Kit (Quantabio) following the manufacturer’s instructions. Approximately 30 ng of cDNA were used for each qPCR reaction, which was carried out using the Luna Universal qPCR Master Mix (New England BioLabs, cat# E3010G) on a CFX Opus 384 Real-Time PCR System. Relative expression levels of Bcl-2 and FOXQ1 were calculated by normalizing to GAPDH expression using the ΔΔCt method.

Q: With `CCOC(=O)c1cc2cc(NC(=O)/C=C/C(=O)c3ccc(OC)cc3)ccc2[nH]1` [MG-HuR2] as the compound, how does the spheroid growth (MDA-MB-231 spheroids) read?
A: Its spheroid growth is “inhibited spheroid growth after 2 days”.

Q: What about the “reduction of Bcl2 protein expression” value (Bcl2 [1]) of the same compound?
A: The value was 88%.

Q: What about the “cytotoxicity / viability in nontumorigenic cells” value (MCF-10A) of the same compound?
A: The value was “No significant cytotoxicity or change in viability”.

Q: What about the “cytotoxicity / cell viability (crystal violet)” value (MCF-7 cells [2]) of the same compound?
A: Its value is “exhibited cytotoxic activity”.

Q: What about the “apoptosis (caspase 3/7)” value (MCF-7 cells [3]) of the same compound?
A: The value was “significant increase in apoptosis”.

Q: And the “reduction of Bcl2 protein expression” value (Bcl2 [4])?
A: Its value is 45%.

Q: And the spheroid growth (MCF-7 spheroids)?
A: The spheroid growth was “inhibited spheroid growth after 2 days”.

Q: And the “Bcl2 and FOXQ1 mRNA expression” value (Bcl2 and FOXQ1 mRNA)?
A: The value was “decrease in the expression of both genes”.

From PMC12381739, “Druglike Molecular Degraders of the Oncogenic RNA-Binding Protein HuR” (JACS Au, 2025)
